According to article PMC7957705 (Molecules, 2021):
“Also recorded” adds a separate entry of the source. Where a SMILES comes first, the peptide text is derived from it. Bridges are numbered along the chain shown (N, C = ends). Triazole bridges read from a SMILES are 1,4-linked. [ ]: non-standard residue; d: D form. The star is where a group is joined. Benzoyl(4-guanidino) = N=C(N)Nc1ccc(C(=O)*)cc1; Aha = [N-]=[N+]=NCC[C@H](N)C(=O)O; β3hV = CC(C)[C@H](N)CC(=O)O; Nle = CCCC[C@H](N)C(=O)O; Pra = C#CC[C@H](N)C(=O)O

How the values were obtained:
human MCH-R1 = biological target: T1, human MCH-R1 (Homo sapiens, UniProt Q99705); experiment: MCH-induced cytosolic Ca2+ ion mobilization, antagonist effect; type: cell-based
T1 construct: expressed in transfected cells
T1 sequence (Q99705 whole entry): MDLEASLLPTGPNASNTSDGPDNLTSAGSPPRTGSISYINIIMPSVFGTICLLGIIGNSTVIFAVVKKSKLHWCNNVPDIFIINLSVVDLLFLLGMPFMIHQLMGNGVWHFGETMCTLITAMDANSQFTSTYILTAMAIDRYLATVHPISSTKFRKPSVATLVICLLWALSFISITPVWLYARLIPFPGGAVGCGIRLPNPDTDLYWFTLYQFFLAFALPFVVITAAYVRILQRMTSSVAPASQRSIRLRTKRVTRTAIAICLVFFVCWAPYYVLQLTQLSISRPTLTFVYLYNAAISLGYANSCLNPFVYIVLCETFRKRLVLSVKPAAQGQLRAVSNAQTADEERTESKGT

[1] = system: high-fat diet-induced obese C57BL/6 mice; experiment: Diet-induced obesity model: adipose tissue weights; type: in vivo, mouse
Protocol: Male C57BL/6 mice at 4 weeks of age were provided by BioLasco Taiwan (under Charles River Laboratories Licensee). All animals were maintained in an environment with well-controlled temperature (20–24 °C) and humidity (30–70%) with 12 h light/dark cycles. Free access to standard lab diet (MFG (Oriental Yeast Co., Ltd., Japan)) and autoclaved tap water was granted. All aspects of this work including housing, experimentation, and animal disposal were performed in general accordance with the “Guide for the Care and Use of Laboratory Animals: Eighth Edition” (National Academies Press, Washington, D.C., 2011) in our laboratory animal facility accredited by the […]. In addition, the protocol for animal care and use was reviewed and approved by the Institutional Animal Care and Use Committee (IACUC) at Pharmacology Discovery Services Taiwan, Ltd.
The protocol was performed for all groups and all animals. Male C57BL/6 mice were fed a high-fat diet (HFD) (60% of calories) or a standard chow diet (STD) from 4 weeks of age. Thirty (30) mice were fed the HFD and 10 mice were fed the STD (for 8 weeks before treatment) for a total of 20 weeks. The mice assigned to the STD diet were maintained on this diet throughout the study as a reference group of lean control mice. From Week 9, HFD-fed mice were grouped by body weight before dosing. Body weight was recorded three times weekly from Week 9. Food/water intake was recorded twice weekly from Week 9. Blood chemistry analyzes were performed in Weeks 8 (before dosing, Day 56), 16 (Day 113) and 20 (Day 141), including serum insulin, total cholesterol (T-CHO), triglyceride (TG), alanine aminotransferase (ALT), aspartate aminotransferase (AST), uric acid (UA), creatinine, potassium (K^+) and sodium (Na^+). At the termination in Week 20 (Day 141), the adipose tissue weight, including epididymal, mesenteric, inguinal, retroperitoneal, and brown fat, was measured after the animals were sacrificed. Two-way ANOVA followed by Bonferroni’s tests were applied to ascertain the difference between vehicle control and treated animals. Significance was set at p < 0.05 level. The following parameters were measured: (1) body weight three times weekly; (2) food/water intake twice weekly; (3) blood chemistry in Weeks 8 (before dosing), 16 and 20 including glucose, insulin, serum lipids (triglycerides (TG), total cholesterol (TC), AST, alanine aminotransferase (ALT), uric acid, creatinine, potassium and sodium through 16-h fasting animals; and finally, (4) total body fat (including visceral and subcutaneous fat) in Week 20.

[2] = 5 and 10 mg/kg i.p. once daily for 12 weeks, Week 20 (Day 141)

## CCCC[C@@H]1NC(=O)[C@@H](NC(=O)c2ccc(NC(=N)N)cc2)CCn2cc(nn2)C[C@@H](C(=O)N[C@@H](Cc2c[nH]c3ccccc23)C(=O)O)NC(=O)[C@@H]2CCCN2C(=O)[C@H](CCCNC(=N)N)NC(=O)C[C@H](C(C)C)NC(=O)[C@H](CCCNC(=N)N)NC(=O)[C@H](CC(C)C)NC1=O [GPS18169] ({Benzoyl(4-guanidino)}-[Aha][Nle]LR[β3hV]RP[Pra]W-OH; triazole 1-8)
Human MCH-R1
  antagonistic functionality (in words): high picomolar range
Human MCH-R1; antagonism of MCH-induced cytosolic Ca2+ mobilization, read-out: Ki (functionality, antagonism at MCH-R1)
  Ki: 28 pM
[1]; 5 and 10 mg/kg i.p. once daily for 12 weeks
  adipose tissue weight / accumulation: active in limiting the accumulation of adipose tissues; also recorded: significant decrease
[1]; [2]
  weight of brown fat: significant (p < 0.05) decrease
  weight of inguinal fat: significant (p < 0.05) decrease
  weight of mesenteric fat: significant (p < 0.05) decrease
  weight of retroperitoneal fat: significant (p < 0.05) decrease
[1]; g/100 g of body weight
  weight ratio of adipose tissue to the whole body: constant
